# Data taken from ChEMBL document CHEMBL6071160, “Identification of a novel 10-hydroxyevodiamine prodrug as a potent topoisomerase inhibitor with improved aqueous solubility for treatment of hepatocellular carcinoma” (Eur J Med Chem, 2024).
# Active and inactive are the calls of the source. The rule behind the calls is not given here.
# Key:
# [1] = test system: SK-HEP1; assay: Induction of apoptosis in human SK-HEP1 cells assessed as late apoptotic cells at 20 nM measured after 24 hrs by Annexin-V-FITC/PI analysis (reference value: 0.64%); assay type: functional
# [2] = test system: Huh-7; assay: Induction of apoptosis in human Huh-7 cells assessed as viable cells at 40 nM measured after 24 hrs by Annexin-V-FITC/PI analysis (reference value: 97.46%); assay type: functional; conditions: read-out: Activity
# [3] = Toxicity in BALB/c nude mouse subcutaneously injected with human Huh-7 cells assessed as change in white blood cells at 10 mg/kg, ip administered once daily measured after 14 days; assay type: organism-based; conditions: in vivo, 336 h, time 14 day
# [4] = test system: SK-HEP1; assay: Induction of apoptosis in human SK-HEP1 cells assessed as ROS generation by measuring DCFH2-DA stained cells at 40 nM measured after 24 hrs […] (reference value: 0.14%); assay type: functional
# [5] = test system: Huh-7; assay: Induction of apoptosis in human Huh-7 cells assessed as necrotic cells at 20 nM measured after 24 hrs by Annexin-V-FITC/PI analysis (reference value: 0.27%); assay type: functional
# [6] = test system: Huh-7; assay: In vivo antitumor activity against human Huh-7 cells subcutaneously injected into BALB/C nude mouse assessed as tumor growth inhibition at 40 mg/kg, ip administered once other day measured after 14 days; assay type: functional; conditions: Huh-7, 336 h, time 14 day, read-out: TGI
# [7] = Tmax in Sprague-Dawley rat at 10 mg/kg, ip measured upto 24 hrs by LC-MS/MS analysis; assay type: ADME, organism-based; conditions: in vivo
# [8] = test system: Huh-7; assay: Inhibition of cell invasion in human Huh-7 cells assessed as decrease in number of cells migration into lower compartment at 40 nM measured after 24 hrs by transwell assay; assay type: functional, cell-based
# [9] = molecular target: T1, DNA topoisomerase 1 (Homo sapiens) (UniProt P11387); assay: Inhibition of DNA topoisomerase 1 (unknown origin) assessed as relaxation of supercoiled plasmid pBR322 DNA at 25 to 100 uM incubated for 15 mins measured after 30 mins addition of ethidium bromide by agarose gel electrophoresis; conditions: dose 25-100 µM, time 45.0 min
# T1 sequence (whole entry): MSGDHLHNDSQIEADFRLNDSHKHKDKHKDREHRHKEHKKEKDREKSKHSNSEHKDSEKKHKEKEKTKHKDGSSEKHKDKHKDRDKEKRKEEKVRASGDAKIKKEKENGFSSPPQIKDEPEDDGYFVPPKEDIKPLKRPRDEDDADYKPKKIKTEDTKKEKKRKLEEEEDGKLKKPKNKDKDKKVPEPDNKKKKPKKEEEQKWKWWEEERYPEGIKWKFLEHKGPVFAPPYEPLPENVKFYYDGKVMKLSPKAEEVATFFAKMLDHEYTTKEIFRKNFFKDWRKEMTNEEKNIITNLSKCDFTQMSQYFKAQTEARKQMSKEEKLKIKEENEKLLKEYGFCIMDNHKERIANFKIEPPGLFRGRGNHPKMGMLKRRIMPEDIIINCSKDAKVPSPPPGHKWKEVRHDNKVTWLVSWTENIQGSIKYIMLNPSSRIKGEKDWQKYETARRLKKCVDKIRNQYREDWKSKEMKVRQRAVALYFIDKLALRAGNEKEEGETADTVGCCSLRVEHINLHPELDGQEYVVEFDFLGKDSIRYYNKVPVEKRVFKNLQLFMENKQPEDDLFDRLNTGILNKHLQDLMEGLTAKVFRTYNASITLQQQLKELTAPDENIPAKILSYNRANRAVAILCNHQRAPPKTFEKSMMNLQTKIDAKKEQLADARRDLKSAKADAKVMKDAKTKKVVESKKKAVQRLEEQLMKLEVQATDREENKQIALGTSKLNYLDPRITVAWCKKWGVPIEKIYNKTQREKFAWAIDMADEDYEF
# [10] = test system: Huh-7; assay: Inhibition of cell migration in human Huh-7 cells at 10 nM measured for 24 hrs by scratch wound healing assay; assay type: functional, cell-based
# [11] = test system: Huh-7; assay: In vivo antitumor activity against human Huh-7 cells subcutaneously injected into BALB/C nude mouse assessed as tumor growth inhibition at 10 mg/kg, ip administered once daily measured after 14 days; assay type: functional; conditions: Huh-7, 336 h, time 14 day, read-out: TGI
# [12] = test system: Huh-7; assay: Induction of cell cycle arrest in human Huh-7 cells assessed as accumulation of cells at S phase 40 nM measured after 24 hrs by flow cytometric assay (reference value: 23.33%); assay type: functional
# [13] = test system: SK-HEP1; assay: Induction of apoptosis in human SK-HEP1 cells assessed as ROS generation by measuring DCFH2-DA stained cells at 20 nM measured after 24 hrs […] (reference value: 0.14%); assay type: functional
# [14] = test system: SK-HEP1; assay: Induction of cell cycle arrest in human SK-HEP1 cells assessed as accumulation of cells at G2 phase 80 nM measured after 24 hrs by flow cytometric assay (reference value: 22.41%); assay type: functional
# [15] = test system: SK-HEP1; assay: Antiproliferative activity against human SK-HEP1 cells assessed as inhibition of cell proliferation incubated for 72 hrs by MTT assay; assay type: functional, cell-based; conditions: SK-HEP1, 72 h
# [16] = Chemical stability of compound at pH 4.6 assessed as residual rate measured after 2 days; assay type: physicochemical; conditions: buffer, time 2 day, read-out: Stability
# [17] = test system: Huh-7; assay: Induction of apoptosis in human Huh-7 cells assessed as loss of mitochondrial membrane potential by measuring JC-1 stained cells at 40 nM measured after 24 hrs by JC-1 staining based flow cytometry (reference value: 2.27%); assay type: functional
# [18] = test system: SK-HEP1; assay: Induction of apoptosis in human SK-HEP1 cells assessed as ROS generation by measuring DCFH2-DA stained cells at 80 nM measured after 24 hrs […] (reference value: 0.14%); assay type: functional
# [19] = test system: Huh-7; assay: Induction of apoptosis in human Huh-7 cells assessed as early apoptotic cells at 20 nM measured after 24 hrs by Annexin-V-FITC/PI analysis (reference value: 1.04%); assay type: functional
# [20] = test system: SK-HEP1; assay: Induction of apoptosis in human SK-HEP1 cells assessed as viable cells at 20 nM measured after 24 hrs by Annexin-V-FITC/PI analysis (reference value: 97.20%); assay type: functional; conditions: read-out: Activity
# [21] = test system: Huh-7; assay: Induction of apoptosis in human Huh-7 cells assessed as viable cells at 20 nM measured after 24 hrs by Annexin-V-FITC/PI analysis (reference value: 97.46%); assay type: functional; conditions: read-out: Activity
# [22] = test system: SK-HEP1; assay: Induction of cell cycle arrest in human SK-HEP1 cells assessed as accumulation of cells at S phase 80 nM measured after 24 hrs by flow cytometric assay (reference value: 30.04%); assay type: functional
# [23] = test system: Huh-7; assay: Induction of cell cycle arrest in human Huh-7 cells assessed as accumulation of cells at G2 phase 80 nM measured after 24 hrs by flow cytometric assay (reference value: 13.66%); assay type: functional
# [24] = test system: SK-HEP1; assay: Induction of cell cycle arrest in human SK-HEP1 cells assessed as accumulation of cells at S phase 20 nM measured after 24 hrs by flow cytometric assay (reference value: 30.04%); assay type: functional
# [25] = test system: Huh-7; assay: Induction of apoptosis in human Huh-7 cells assessed as early apoptotic cells at 40 nM measured after 24 hrs by Annexin-V-FITC/PI analysis (reference value: 1.04%); assay type: functional
# [26] = Cmax in Sprague-Dawley rat at 10 mg/kg, ip measured upto 24 hrs by LC-MS/MS analysis; assay type: ADME, organism-based; conditions: in vivo
compound,measurement,setting,value
C[N+](C)(C)CCC(=O)Oc1ccc2[nH]c3c(c2c1)CCN1C(=O)c2cc(F)cc(F)c2N(c2cccc(F)c2)C31.[I-] (stereo unspecified),Activity,[1],0.71%
same,viability at 0.04 µM,[2],94.2%
same,Activity,[3],Non-Toxic
same,Activity,[4],13.95%
same,Activity,[5],0.11%
same,inhibition in vivo at 40 mg/kg,[6],51.1%
same,Tmax,[7],1.67 h
same,inhibition,[8],Active
same,inhibition,[9],Active
same,inhibition,[10],Active
same,inhibition in vivo at 10 mg/kg,[11],83.3%
same,Activity,[12],21.3%
same,Activity,[13],0.47%
same,Activity,[14],68.55%
same,IC50,[15],30 nM
same,remaining at 48 h,[16],63.1%
same,Activity,[17],3.05%
same,Activity,[18],56.75%
same,Activity,[19],1.31%
same,viability at 0.02 µM,[20],97.2%
same,viability at 0.02 µM,[21],96.6%
same,Activity,[22],18.41%
same,Activity,[23],86.5%
same,Activity,[24],28.78%
same,Activity,[25],2.84%
same,Cmax,[26],240 ng/mL
